Laboratory results published in ChEMBL document CHEMBL3745608, “Structure-based design, synthesis, and biological evaluation of Leu-Arg dipeptide analogs as novel hepsin inhibitors” (Bioorg Med Chem Lett, 2016).
Where a SMILES comes first, the peptide text is derived from it.

Assays:
Serine protease hepsin = Serine protease hepsin (Homo sapiens, UniProt P05981); assay: Inhibition of human recombinant hepsin using Boc-QAR-AMC as substrate preincubated for 30 mins followed by substrate addition measured for 15 to 120 mins by plate reader analysis
[1] = target: T1, Suppressor of tumorigenicity 14 protein homolog (Mus musculus, UniProt P56677); assay: Inhibition of mouse recombinant matriptase using Boc-QAR-AMC as substrate preincubated for 30 mins followed by substrate addition measured for 15 to 120 mins by plate reader analysis
T1 sequence (P56677 whole entry): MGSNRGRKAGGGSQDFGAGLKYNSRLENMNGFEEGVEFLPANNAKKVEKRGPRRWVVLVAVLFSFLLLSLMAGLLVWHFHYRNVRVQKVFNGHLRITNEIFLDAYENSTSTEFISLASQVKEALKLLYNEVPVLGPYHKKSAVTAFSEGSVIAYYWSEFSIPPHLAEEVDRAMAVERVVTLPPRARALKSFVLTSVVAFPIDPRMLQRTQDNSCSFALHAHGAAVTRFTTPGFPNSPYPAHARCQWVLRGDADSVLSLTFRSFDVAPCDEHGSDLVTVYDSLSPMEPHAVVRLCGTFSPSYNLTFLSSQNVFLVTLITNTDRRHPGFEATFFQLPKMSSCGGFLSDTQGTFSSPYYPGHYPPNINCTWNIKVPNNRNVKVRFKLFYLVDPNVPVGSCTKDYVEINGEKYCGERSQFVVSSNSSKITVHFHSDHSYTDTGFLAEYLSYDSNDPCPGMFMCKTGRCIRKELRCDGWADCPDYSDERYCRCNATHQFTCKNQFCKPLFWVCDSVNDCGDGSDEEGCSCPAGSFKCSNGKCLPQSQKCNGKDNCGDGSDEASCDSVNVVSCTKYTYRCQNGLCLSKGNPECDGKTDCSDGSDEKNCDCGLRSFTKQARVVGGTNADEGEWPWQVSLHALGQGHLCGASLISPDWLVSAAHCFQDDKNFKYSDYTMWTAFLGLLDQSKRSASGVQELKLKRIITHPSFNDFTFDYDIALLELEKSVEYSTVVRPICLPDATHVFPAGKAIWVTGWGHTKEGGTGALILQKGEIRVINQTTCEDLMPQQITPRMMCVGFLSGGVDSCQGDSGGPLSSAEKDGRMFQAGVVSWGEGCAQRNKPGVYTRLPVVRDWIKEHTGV

[2] = Selectivity ratio of Ki for mouse recombinant matriptase to Ki for human recombinant hepsin

Chain of Serine protease hepsin (P05981 1-162 limits assumed): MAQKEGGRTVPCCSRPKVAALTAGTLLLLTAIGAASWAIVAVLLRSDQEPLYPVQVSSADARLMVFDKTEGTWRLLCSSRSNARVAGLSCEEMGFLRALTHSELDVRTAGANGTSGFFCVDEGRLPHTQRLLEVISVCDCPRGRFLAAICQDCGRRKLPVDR
Chain of Serine protease hepsin (P05981 163-417 limits assumed): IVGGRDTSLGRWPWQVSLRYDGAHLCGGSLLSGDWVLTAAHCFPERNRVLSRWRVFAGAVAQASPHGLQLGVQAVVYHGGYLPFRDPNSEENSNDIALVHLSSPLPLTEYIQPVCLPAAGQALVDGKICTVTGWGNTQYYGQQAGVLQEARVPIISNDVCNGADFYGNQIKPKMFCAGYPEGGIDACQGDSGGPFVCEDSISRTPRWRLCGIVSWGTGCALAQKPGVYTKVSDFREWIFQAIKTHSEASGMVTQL

| Ki (Serine protease hepsin) | Ki [1] | Ratio Ki [2] | Compound |
| --- | --- | --- | --- |
| > 10000 nM | > 10000 nM | – | CC(=O)N[C@@H](CC(C)C)C(=O)N[C@H](CCCNC(=N)N)C(=O)c1ccccc1 |
| > 10000 nM | > 10000 nM | – | CC(=O)N[C@@H](CC(C)C)C(=O)N[C@@H](CCCNC(=N)N)C(=O)c1ccccc1 |
| 21.5 nM | 246 nM | 8 | CC(=O)N[C@@H](CC(C)C)C(=O)N[C@H](CCCNC(=N)N)C(=O)c1nccs1 |
| > 10000 nM | > 10000 nM | – | CC(=O)N[C@@H](CCCCN)C(=O)N[C@@H](CCC(N)=O)C(=O)N[C@@H](CC(C)C)C(=O)O (Ac-Lys-Gln-Leu-OH) |
| 1.04 nM | 11.3 nM | 8 | CC(=O)N[C@@H](CCC(N)=O)C(=O)N[C@@H](CC(C)C)C(=O)N[C@@H](CCCNC(=N)N)C(=O)c1nccs1 |
| 0.83 nM | 8 nM | – | CC(=O)N[C@@H](CCCCN)C(=O)N[C@@H](CCC(N)=O)C(=O)N[C@@H](CC(C)C)C(=O)N[C@H](CCCNC(=N)N)C(=O)c1nccs1 |
| > 10000 nM | > 10000 nM | – | CC(=O)N[C@@H](CCCNC(=N)N)C(=O)c1nccs1 |
| 2.88 nM | 11.1 nM | 8 | CC(=O)N[C@@H](CCC(N)=O)C(=O)N[C@@H](CC(C)C)C(=O)N[C@H](CCCNC(=N)N)C(=O)c1nccs1 |
| 1.45 nM | 10.4 nM | – | CC(=O)N[C@@H](CCCCN)C(=O)N[C@@H](CCC(N)=O)C(=O)N[C@@H](CC(C)C)C(=O)N[C@@H](CCCNC(=N)N)C(=O)c1nccs1 |
| 22.4 nM | 334 nM | 8 | CC(=O)N[C@@H](CC(C)C)C(=O)N[C@@H](CCCNC(=N)N)C(=O)c1nccs1 |
| 3.38 nM | 227 nM | > 60 | CC(=O)N[C@@H](CC(C)C)C(=O)N[C@@H](CCCN=C(N)N)C(=O)c1nc2ccccc2s1 |
| 2.91 nM | 177 nM | > 60 | CC(=O)N[C@@H](CC(C)C)C(=O)N[C@H](CCCNC(=N)N)C(=O)c1nc2ccccc2s1 |
